Values joined by “and” are separate entries in the source; they are usually repeats but may differ in a detail not shown here. Equal entries are not always repeated.
Legend:
[1] = Hematological examination, Experiment 6-4; format: in vivo, mouse
[2] = test system: rheumatoid arthritis model, DBA-1J Mice [류마티스 관절염 모델]; assay: Paw edema in rheumatoid arthritis animal model, dose regimen study, Experiment 6; format: in vivo, mouse; settings: for Paw edema, HL, mean / Paw edema, HR, mean / Paw edema, HL, individual animal / Paw edema, HR, individual animal: Day 14; for Paw edema, HL, individual animal / Paw edema, HR, individual animal: listed as Py
[3] = test system: rheumatoid arthritis model, DBA-1J Mice [류마티스 관절염 모델]; assay: Histopathological examination in rheumatoid arthritis animal model, Experiment 5; format: in vivo, mouse; settings: Day 14
NF-ĸB(p65) = assay: NF-kB activity (p65 nuclear translocation) in Raw264.7, Experiment 4; format: cell-based; settings: 50 ng/ml, 2 h pretreatment; LPS 100 ng/ml 2 h; Fig. 7
TNF-α [4] = assay: TNF-α expression inhibition in Raw264.7 by treatment time, Experiment 1-2; format: cell-based; settings: LPS 100 ng/ml
TNF-α [5] = assay: Plasma TNF-α (ELISA), Experiment 6-5; format: in vivo, mouse; settings: for Plasma TNF-α: Day 14
TNF-α [6] = assay: TNF-α expression inhibition in RAW264.7 macrophages vs PS1145 (ELISA), Experiment 1-1; format: cell-based; settings: Fig. 1
TNF-α [7] = assay: TNF-α expression inhibition in Raw264.7, comparison with hydroxychloroquine and proguanil, Experiment 2-3; format: cell-based
TNF-α [8] = assay: TNF-α expression inhibition in Raw264.7, comparison with DMARDs, Experiment 2-1; format: cell-based; settings: for TNF-α expression: 6 h pretreatment, LPS 10 ng/mL, MTX 344 nM, HCQ 610 nM, PYR 50 ng/mL, CsA 391 ng/mL, AZA 25 ng/mL, SFZ 750 ng/mL

## CCc1nc(N)nc(N)c1-c1ccc(Cl)cc1 [피리메타민, Pyrimethamine]
[1]; Day 14, G8: Py 1 mpk qd PO
  %RETIC: 6.74±3.63%
  HCT: 44.8±2.5%
  HDW: 2.31 ± 0.25 g/dL
  HGB: 12.3 ± 0.6 g/dL
  MCH: 12.6 ± 0.4 pg
  MCV: 45.6 ± 0.9 fL
  MPV: 6.3 ± 0.1 fL
  PLT: 1380±72 10^3 cell/μL
  RBC: 9.82±0.67 10^6 cell/μL
  RDW: 21.5±3%
  WBC: 2.67±0.58 10^3 cell/μL
[1]; G7, intraperitoneal injection
  Hematotoxicity (in words): 혈소판 수치가 감소하는 독성이 나타났다
[1]; oral groups G8-G12
  Hematotoxicity (in words): 혈액 독성이 나타나지 않음
[2]; G7: Py 1 mg/kg/day QD IP
  Paw edema, HL, mean: 0.17 mL
  Paw edema, HR, mean: 0.17 mL
  Paw edema, HL, individual animal: 0.18 mL and 0.19 mL and 0.17 mL and 0.12 mL and 0.14 mL
  Paw edema, HR, individual animal: 0.17 mL and 0.18 mL and 0.14 mL and 0.19 mL
[2]; G8: Py 1 mg/kg/day BID PO
  Paw edema, HL, mean: 0.16 mL
  Paw edema, HR, mean: 0.17 mL
  Paw edema, HL, individual animal: 0.14 mL and 0.13 mL and 0.17 mL and 0.19 mL and 0.20 mL
  Paw edema, HR, individual animal: 0.18 mL and 0.19 mL and 0.17 mL and 0.14 mL
[2]; G9: Py 1 mg/kg/day QD PO
  Paw edema, HL, mean: 0.17 mL
  Paw edema, HR, mean: 0.18 mL
  Paw edema, HL, individual animal: 0.13 mL and 0.20 mL and 0.17 mL and 0.19 mL
  Paw edema, HR, individual animal: 0.19 mL and 0.16 mL and 0.17 mL
[2]; G10: Py 3 mg/kg/day BID PO
  Paw edema, HL, mean: 0.15 mL
  Paw edema, HR, mean: 0.16 mL
  Paw edema, HL, individual animal: 0.16 mL and 0.20 mL and 0.13 mL and 0.15 mL
  Paw edema, HR, individual animal: 0.17 mL and 0.14 mL and 0.16 mL and 0.15 mL and 0.19 mL
[2]; G11: Py 5 mg/kg QD PO
  Paw edema, HL, mean: 0.18 mL
  Paw edema, HR, mean: 0.18 mL
  Paw edema, HL, individual animal: 0.16 mL and 0.20 mL and 0.19 mL and 0.17 mL and 0.14 mL
  Paw edema, HR, individual animal: 0.19 mL and 0.20 mL and 0.16 mL
[2]; G12: Py 15 mg/kg/day QD PO
  Paw edema, HL, mean: 0.14 mL
  Paw edema, HR, mean: 0.14 mL
  Paw edema, HL, individual animal: 0.19 mL and 0.13 mL and 0.11 mL and 0.14 mL
  Paw edema, HR, individual animal: 0.11 mL and 0.16 mL and 0.14 mL and 0.13 mL and 0.15 mL
[2]; Py 15 mg/kg/day QD PO
  Paw edema (in words): 피리메타민 15 mg/kg/day QD 경구투여군에서만 개선
[3]; G4: Py 10 mg/kg/day PO
  Bone destruction: 0.9±0.9
  Cartilage damage: 1.3±1.0
  Histopathological examination, total: 3.6±2.7
  Synovium proliferation: 1.4±1.1
[3]; G5: Py 30 mg/kg/day PO
  Bone destruction: 0.4±0.8
  Cartilage damage: 0.3±0.5
  Histopathological examination, total: 1.1±1.5
  Synovium proliferation: 0.4±0.8
[3]; Py 10 and 30 mg/kg/day PO
  Efficacy by histopathology compared with methotrexate (in words): 메토트렉세이트와 비교할 때에도 보다 우수한 효과
  Therapeutic efficacy by histopathology (in words): 농도 의존적으로 치료 효능을 보였으며
NF-ĸB(p65)
  NF-ĸB(p65) activity: NF-ĸB(p65)의 활성이 현저히 저하
TNF-α [4]; 2 or 50 ng/ml, 1 or 2 h
  TNF-α expression, concentration dependence: TNF-α의 발현량이 피리메타민의 농도 의존적으로 줄어드는
TNF-α [4]; PYR 2 ng/ml, 1hr
  TNF-α expression: 916.0 pg/mL
TNF-α [4]; PYR 2 ng/ml, 2hr
  TNF-α expression: 1101.2 pg/mL
TNF-α [4]; PYR 50 ng/ml, 1hr
  TNF-α expression: 686.4 pg/mL
TNF-α [4]; PYR 50 ng/ml, 2hr
  TNF-α expression: 889.0 pg/mL
TNF-α [5]; G7: Py 1 mg/kg/day QD IP
  Plasma TNF-α: 879.4 pg/mL
TNF-α [5]; G8: Py 1 mg/kg/day BID PO
  Plasma TNF-α: 867.2 pg/mL
TNF-α [5]; G9: Py 1 mg/kg/day QD PO
  Plasma TNF-α: 863.5 pg/mL
TNF-α [5]; G10: Py 3 mg/kg/day BID PO
  Plasma TNF-α: 818.8 pg/mL
TNF-α [5]; G11: Py 5 mg/kg QD PO
  Plasma TNF-α: 763.7 pg/mL
TNF-α [5]; G12: Py 15 mg/kg/day QD PO
  Plasma TNF-α: 728.0 pg/mL
TNF-α [5]; pyrimethamine oral groups
  Plasma TNF-α (in words): 농도 의존적으로 혈장 TNF-α 수치가 감소
TNF-α [6]; pyrimethamine 2, 10, 50 ng/ml
  TNF-α expression: TNF-α의 발현량이 현저하게 줄어들었으며
TNF-α [6]; pyrimethamine 10 or 50 ng/ml vs PS1145 20 uM
  TNF-α expression compared with PS1145: 비교예(PS1145)에 비해 TNF-α의 발현이 보다 현저하게 줄어드는
TNF-α [7]; PY 0.2 uM, HCQ 0.61 uM, PG 5 uM, LPS 10 ng/mL, 24 h co-treatment
  TNF-α expression: 667.9
TNF-α [7]; drug treatment 2 h or 24 h, pyrimethamine 0.2 μM, proguanil 5 μM
  TNF-α expression inhibition: 히드록시클로로퀸과 비교하였을 때 피리메타민의 TNF-α 발현량 억제능이 월등함
TNF-α [8]; 2hr
  TNF-α expression: 101.3 pg/mL
TNF-α [8]; 24hr
  TNF-α expression: 963.4 pg/mL
TNF-α [8]; drug treatment 8 h or 24 h, pyrimethamine 50 ng/ml
  TNF-α expression inhibition compared with comparative examples: 비교예들에 비해 TNF-α의 발현량을 월등히 억제하였고
